According to patent publication US12030880B2, “Iminosulfanone compound as bromodomain protein inhibitor and pharmaceutical composition and medical use thereof” (CHIA TAI TIANQING PHARMACEUTICAL GROUP CO., LTD., priority 2018, dated 2024):

Columns and labels:
MV4-11 cells = test: Cell proliferation activity assay in MV4-11; assay type: cell-based; settings: Homo sapiens, inhibiting cell proliferation, 72 hours, Cell-Titer Blue
Protocol: (§1) Human acute lymphoblastic leukemia cell line MV4-11 cells were cultured in PRIM1640 medium plus 10% fetal bovine serum (FBS, purchased from Biological Industries, BI) and 1% penicillin/streptomycin double antibody (P/S, purchased from Life Technology) at 37° C. with 5% CO2. On the day before the compound test, MV4-11 cells were spread in a 96-well plate (purchased from Corning) at a concentration of 8000 cells/195 μL/well. After 24 hours, the compound was serially diluted 4-fold with 100% DMSO starting from 10 mM (9 concentrations in total), and then 2 μL of the compound at each concentration was added to 48 μL of PRIM1640 medium for dilution. 5 μL of the diluted compound at each concentration was added to the wells spread with the cell suspension, and the compound and cells were co-incubated in a cell incubator for 72 hours (3 days). Then the mixture was added with 35 μL of Cell-Titer Blue reagent (purchased from Promega) and incubated for another 4 hours. The fluorescence values (excited at 560 nm, detected at 590 nm) were then read on Flexstation III, and the data were calculated using GraphPad Prism software to give IC50 value of the compound in inhibiting cell proliferation.

Kasumi-1 cells = test: Cell proliferation activity assay in Kasumi-1; assay type: cell-based; settings: Homo sapiens, inhibiting cell proliferation, 72 hours, Cell-Titer Blue
Protocol: as §1, with “myeloblastic” for “lymphoblastic”, “Kasumi-1” for “MV4-11”, “20%” for “10%”, “5000” for “8000”

BRD4 (BD1) = BRD4 (BD1) (Homo sapiens (Human), UniProt O60885); test: In vitro BRD4 (BD1) enzymatic activity assay (HTRF); assay type: binding; settings: GST-BRD4 (BD1, 44-168 aa)
Protocol: In the present application, IC50 values of the compounds in inhibiting BRD4 (BD1) enzyme binding reaction were determined by homogeneous time resolved fluorescence (HTRF). A compounds was serially diluted 5-fold with 100% DMSO starting from 0.2 mM (7 concentrations in total), and then 2 μL of the compound at each concentration was added to 48 μL of a reaction buffer (20 mM HEPES pH 7.5, 150 mM NaCl, 5 mM DTT, 0.005% Tween 20, and 100 μg/mL BSA) for dilution, and mixed well. 2.5 μL of the resulting mixture was added to a 384-well plate (OptiPlate-384, purchased from PerkinElmer), then 5 μL of GST-BRD4 (BD1, 44-168 aa) (final concentration: 1 nM) was added, and the resulting mixture was centrifuged, and fully mixed. 2.5 μL of a short peptide Biotin-AHA-SGRGK(Ac)GGK(Ac)GLGK(Ac)GGAK(Ac) RHRKV (final concentration: 100 nM) was then added to initiate the reaction (total reaction volume: 10 μL). The 384-well plate was placed in an incubator at 23° C. to react for 1 hour, and then 5 μL of Eu3+ cryptate-labled anti-GST antibody (purchased from Cisbio) and 5 μL of Streptavidin-XL-665 (purchased from Cisbio) were added to terminate the reaction. After being incubated in the incubator for another 1 hour, the fluorescence values (excited at 320 nm, emitted light at 665 nm and 620 nm being detected, and the ratio of the two being the enzyme binding signal) were read on Envision (purchased from PerkinElmer). The binding strength of each compound to BRD4 (BD1) protein was determined respectively at 7 concentrations, and the data were calculated using GraphPad Prism software to obtain the IC50 value of the compound.

BRD4 (BD2) = BRD4 (BD2) (Homo sapiens (Human), UniProt O60885); test: In vitro BRD4 (BD2) enzymatic activity assay (HTRF); assay type: binding; settings: GST-BRD4 (BD2, 349-460 aa)
Protocol: In the present application, IC50 values of the compounds in inhibiting BRD4 (BD2) enzyme binding reaction were determined by homogeneous time resolved fluorescence (HTRF). A compound was serially diluted 5-fold with 100% DMSO starting from 1 mM (7 concentrations in total), and then 2 μL of the compound at each concentration was added to 18 μL of a reaction buffer (20 mM HEPES pH 7.5, 150 mM NaCl, 5 mM DTT, 0.005% Tween 20, and 100 μg/mL BSA) for dilution. After being mixed well, 2 μL of the compound at each concentration was added to 48 μL of the above reaction buffer for dilution, and mixed well (final concentration of the compound in DMSO: 0.1%). 2.5 μL of the resulting mixture was added to a 384-well plate (OptiPlate-384, purchased from PerkinElmer), then 5 μL of GST-BRD4 (BD2, 349-460 aa) (final concentration: 2 nM) was added, and the resulting mixture was centrifuged, and fully mixed. 2.5 μL of a peptide Biotin-AHA-SGRGK(Ac)GGK(Ac)GLGK(Ac)GGAK(Ac) RHRKV (final concentration: 200 nM) was then added to initiate the reaction (total reaction volume: 10 μL). The 384-well plate was placed in an incubator at 23° C. to react for 1 hour, and then 5 μL of Eu3+ cryptate-labled anti-GST antibody (purchased from Cisbio) and 5 μL of Streptavidin-XL-665 (purchased from Cisbio) were added to terminate the reaction. After being incubated in the incubator for another 1 hour, the fluorescence values (excited at 320 nm, emitted light at 665 nm and 620 nm being detected, and the ratio of the two being the enzyme binding signal) were read on Envision (purchased from PerkinElmer). The binding strength of each compound to BRD4 (BD2) protein was determined respectively at 7 concentrations, and the data were calculated using GraphPad Prism software to obtain the IC50 value of the compound.

Row | IC50 (MV4-11 cells) [nM] | IC50 (BRD4 (BD1)) [nM] | IC50 (BRD4 (BD2)) [nM] | SMILES | IC50 (Kasumi-1 cells) [nM]
1 | 124 | – | – | CCNC(=O)c1cc2c(-c3cc(N=S(C)(C)=O)ccc3Oc3ccc(S(C)(=O)=O)cc3)cn(C)c(=O)c2[nH]1 [Example 1, 4-{5-{[dimethyl(oxo)-λ^6-sulfanylidene]amino}-2-[4-(methylsulfonyl)phenoxy]phenyl}-N-ethyl-6-methyl-7-oxo-6,7-dihydro-1H-pyrrolo[2,3-c]pyridine-2-carboxamide] | 322
2 | 15.1 | – | – | Cn1cc(-c2cc(N=S(C)(C)=O)ccc2Oc2ccc(C#N)cc2F)c2cc[nH]c2c1=O [Example 2, 4-{4-{[dimethyl(oxo)-λ^6-sulfanylidene]amino}-2-(6-methyl-7-oxo-6,7-dihydro-1H-pyrrolo[2,3-c]pyridin-4-yl)phenoxy}-3-fluorobenzonitrile] | 6.6
3 | 30.9 | 7.7 | 0.45 | Cn1cc(-c2cc(N=S(C)(C)=O)ccc2Oc2ccc(S(C)(=O)=O)cc2)c2cc[nH]c2c1=O [Example 3, 4-{5-{[dimethyl(oxo)-λ^6-sulfanylidene]amino}-2-[4-(methylsulfonyl)phenoxy]phenyl}-6-methyl-1,6-dihydro-7H-pyrrolo[2,3-c]pyridin-7-one] | 155
4 | 90.4 | 26.4 | 0.93 | Cc1cccc(Cl)c1Oc1ccc(N=S(C)(C)=O)cc1-c1cn(C)c(=O)c2[nH]ccc12 [Example 6, 4-{2-(2-chloro-6-methylphenoxy)-5-[dimethyl(oxo)-λ^6-sulfanylidene]aminophenyl}-6-methyl-1,6-dihydro-7H-pyrrolo[2,3-c]pyridin-7-one] | 13.6
5 | 152 | 24.3 | 0.34 | CCNC(=O)c1cc2c(-c3cc(N=S(C)(C)=O)ccc3Oc3c(C)cccc3Cl)cn(C)c(=O)c2[nH]1 [Example 7, 4-{2-(2-chloro-6-methylphenoxy)-5-{[dimethyl(oxo)-λ^6-sulfanylidene]amino}phenyl}-N-ethyl-6-methyl-7-oxo-6,7-dihydro-1H-pyrrolo[2,3-c]pyridine-2-carboxamide] | 2.3
6 | 16.1 | 2.4 | 1.3 | Cn1cc(-c2cc(N=S(C)(C)=O)ccc2Nc2ccc(F)cc2F)c2cc[nH]c2c1=O [Example 8, 4-{2-(2,4-difluorophenyl)amino-5-[dimethyl(oxo)-λ^6-sulfanylidene]aminophenyl}-6-methyl-1,6-dihydro-7H-pyrrolo[2,3-c]pyridin-7-one] | 9.3
7 | – | 3 | 0.75 | Cc1ncccc1Oc1ccc(N=S(C)(C)=O)cc1-c1cn(C)c(=O)c2[nH]ccc12 [Example 9, 4-{5-{[dimethyl(oxo)-λ^6-sulfanylidene]amino}-2-[(2-methyl-pyridin-3-yl)oxy]phenyl}-6-methyl-1,6-dihydro-7H-pyrrolo[2,3-c]pyridin-7-one] | –
8 | 240 | 96.3 | 0.53 | CCNC(=O)c1cc2c(-c3cc(N=S(C)(C)=O)ccc3Oc3c(C)cc(F)cc3C)cn(C)c(=O)c2[nH]1 [Example 10, 4-{5-{[dimethyl(oxo)-λ^6-sulfanylidene]amino}-2-(4-fluoro-2,6-dimethylphenoxy)phenyl}-N-ethyl-6-methyl-7-oxo-6,7-dihydro-1H-pyrrolo[2,3-c]pyridine-2-carboxamide] | 66.3
9 | 124 | 29.4 | 1.3 | Cc1cc(F)cc(C)c1Oc1ccc(N=S(C)(C)=O)cc1-c1cn(C)c(=O)c2[nH]ccc12 [Example 11, 4-{5-{[dimethyl(oxo)-λ^6-sulfanylidene]amino}-2-(4-fluoro-2,6-dimethylphenoxy)phenyl}-6-methyl-1,6-dihydro-7H-pyrrolo[2,3-c]pyridin-7-one] | 53.2
10 | 27.8 | 4.1 | 1.1 | Cn1cc(-c2cc(N=S(C)(C)=O)ccc2OCC2CCOC2)c2cc[nH]c2c1=O (stereo not shown) [Example 12, 4-{5-{[dimethyl(oxo)-λ^6-sulfanylidene]amino}-2-[(tetrahydrofuran-3-yl)methoxy]phenyl}-6-methyl-1,6-dihydro-7H-pyrrolo[2,3-c]pyridin-7-one] | 20.7
11 | 139 | 27.9 | 4 | CCOC(=O)c1cc2c(-c3cc(N=S(C)(C)=O)ccc3Oc3c(C)cc(F)cc3C)cn(C)c(=O)c2[nH]1 [Example 14, Ethyl 4-{5-{[dimethyl(oxo)-λ^6-sulfanylidene]amino}-2-(4-fluoro-2,6-dimethylphenoxy)phenyl}-6-methyl-7-oxo-6,7-dihydro-1H-pyrrolo[2,3-c]pyridine-2-carboxylate] | 72
12 | 9.1 | 4.5 | 1.2 | Cn1cc(-c2cc(N=S3(=O)CCCC3)ccc2Oc2ccc(F)cc2F)c2cc[nH]c2c1=O [Example 15, 4-{2-(2,4-difluorophenoxy)-5-[(1-oxidotetrahydro-1λ^6-thiophen-1-ylidene)amino]phenyl}-6-methyl-1,6-dihydro-7H-pyrrolo[2,3-c]pyridin-7-one] | 13.7
13 | – | 330 | 4 | Cc1cn(-c2ccc(N=S(C)(C)=O)cc2-c2cn(C)c(=O)c3[nH]ccc23)ccc1=O [Example 17, 4-{5-{[dimethyl(oxo)-λ^6-sulfanylidene]amino}-2-[3-methyl-4-oxopyridin-1(4H)-yl]phenyl}-6-methyl-1,6-dihydro-7H-pyrrolo[2,3-c]pyridin-7-one] | –
14 | – | 188 | 0.88 | Cc1cc(F)cc(C)c1Oc1ccc(N=S(C)(C)=O)cc1-c1cn(C)c(=O)c2[nH]c(C(=O)NCC(F)(F)F)cc12 [Example 22, 4-{5-{[dimethyl(oxo)-λ^6-sulfanylidene]amino}-2-(4-fluoro-2,6-dimethylphenoxy)phenyl}-6-methyl-7-oxo-N-(2,2,2-trifluoroethyl)-6,7-dihydro-1H-pyrrolo[2,3-c]pyridine-2-carboxamide] | –
